Laboratory results from patent US10919859B2, “Benzylaminopyridylcyclopropanecarboxylic acids, pharmaceutical compositions and uses thereof” (Boehringer Ingelheim International GmbH, priority 2017, dated 2021).

How the values were obtained:
[1] = Aqueous solubility (buffer vs acetonitrile/water, LC-UV); format: physicochemical
Protocol: The aqueous solubility of the compounds of the invention is determined by comparing the amount dissolved in buffer to the amount in an acetonitrile/water (1/1) solution. Starting from a 10 mM DMSO stock solution aliquots are diluted with acetonitrile/water (1/1) or buffer, respectively. After 24 h of shaking, the solutions are filtrated and analyzed by LC-UV. The amount dissolved in buffer is compared to the amount in the acetonitrile solution.

human GPR40 receptor = human GPR40 receptor (Homo sapiens (Human), UniProt O14842); assay: IP1 accumulation measurements using the IPOne assay system; format: cell-based; details: 1321N1 cells stably expressing human GPR40, 1 h at 37° C.
Protocol: IP1 accumulation measurements using the IPOne assay system—1321N1 cells stably expressing human GPR40 receptor (Euroscreen, Belgium) are seeded 24 h before the assay in white 384-well plates in culture medium containing 10% FCS, 1% Na-Pyruvate and 400 μg/mL G418. IP1 is assayed according to the manufacturer's description (Cisbio Bioassays, France). In brief, the assay is started by substitution of the culture medium by stimulation buffer (Hepes 10 mM, CaCl2 1 mM, MgCl2 0.5 mM, KCl 4.2 mM, NaCl 146 mM, glucose 5.5 mM and LiCl 50 mM, pH 7.4). Cells are stimulated for 1 h at 37° C., 5% CO2 by addition of the compounds that are diluted in stimulation buffer containing LiCl. Assays are stopped by adding HTRF-conjugates (IP1-d2 and Anti-IP1 cryptate Tb) and lysis buffer, provided by the manufacturer. After an incubation time of 1 h at room temperature plates are measured using an EnVision™, Perkin Elmer. The obtained fluorescence ratios at 665/615 […] are then used to calculate the pEC50 values using Assay Explorer 3.3 Software (Accelrys, Inc.) by interpolation using an IP1 reference curve and subsequent sigmoidal curve fitting allowing for a variable hill slope.

[2] = pH 2.2 buffer, 24 h shaking, 2.5% DMSO, examples in this invention

Sequence of human GPR40 receptor (O14842 whole entry): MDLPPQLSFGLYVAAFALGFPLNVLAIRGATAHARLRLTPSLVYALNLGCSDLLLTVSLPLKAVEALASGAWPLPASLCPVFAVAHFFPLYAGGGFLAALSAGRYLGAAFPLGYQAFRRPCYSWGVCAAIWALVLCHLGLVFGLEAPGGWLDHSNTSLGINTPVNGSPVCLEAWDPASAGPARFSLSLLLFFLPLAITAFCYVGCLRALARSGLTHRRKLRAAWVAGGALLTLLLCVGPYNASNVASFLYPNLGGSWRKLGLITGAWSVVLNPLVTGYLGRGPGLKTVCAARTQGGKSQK

Compound | Solubility at pH value 2.2 ([1]; pH 2.2) [μg/mL] | EC50 (human GPR40 receptor) [nM] | Solubility at pH value 2.2 [1, 2] [μg/mL]
N#CC1(c2ccccc2-c2ccc(F)c(CNc3ccc([C@H]4C[C@@H]4C(=O)O)nc3)c2)CC1 [Example 29] | 57 | 696 | –
O=C(O)[C@H]1C[C@@H]1c1ccc(NCc2cc(-c3c(Cl)cccc3Cl)ccc2F)cn1 [Example 30] | 53 | 34 | –
COc1cc(OC)c(-c2ccc(F)c(CNc3ccc([C@H]4C[C@@H]4C(=O)O)nc3)c2)c(OC)c1 [Example 31] | 88 | 453 | –
O=C(O)[C@H]1C[C@@H]1c1ccc(NCc2cc(-c3ccc(-c4cnco4)cc3)ccc2F)cn1 [Example 32] | – | 174 | 56
O=C(O)[C@H]1C[C@@H]1c1ccc(NCc2cc(-c3c(F)cc(OC4CC4)cc3F)ccc2F)cn1 [Example 33] | 53 | 297 | –
Nc1cc(F)c(-c2ccc(F)c(CNc3ccc([C@H]4C[C@@H]4C(=O)O)nc3)c2)c(F)c1 [Example 34] | 79 | 1450 | –
COc1cc(C)c(-c2ccc(F)c(CNc3ccc([C@H]4C[C@@H]4C(=O)O)nc3)c2)c(C)c1 [Example 35] | 63 | 49 | –
Cc1ccc(Cl)c(-c2ccc(F)c(CNc3ccc([C@H]4C[C@@H]4C(=O)O)nc3)c2)c1Cl [Example 36] | 43 | 35 | –
O=C(O)[C@H]1C[C@@H]1c1ccc(NCc2cc(-c3ccccc3C(F)(F)F)ccc2F)cn1 [Example 37] | 68 | 38 | –
N#Cc1cccc(C#N)c1-c1ccc(F)c(CNc2ccc([C@H]3C[C@@H]3C(=O)O)nc2)c1 [Example 38] | >83 | > 10000 | –
O=C(O)[C@H]1C[C@@H]1c1ccc(NCc2cc(-c3c(F)cccc3F)ccc2F)cn1 [Example 39] | 46 | 435 | –
COc1cc(F)c(-c2ccc(F)c(CNc3ccc([C@H]4C[C@@H]4C(=O)O)nc3)c2)c(F)c1 [Example 40] | 62 | 988 | –
Cc1cccc(C)c1-c1ccc(F)c(CNc2ccc([C@H]3C[C@@H]3C(=O)O)nc2)c1 [Example 41] | 59 | 41 | –
Cc1cc(C(=O)N(C)C)cc(C)c1-c1ccc(F)c(CNc2ccc([C@H]3C[C@@H]3C(=O)O)nc2)c1 [Example 42] | 71 | 231 | –
CNC(=O)c1cc(C)c(-c2ccc(F)c(CNc3ccc([C@H]4C[C@@H]4C(=O)O)nc3)c2)c(C)c1 [Example 43] | 84 | 358 | –
Cc1cc(OCC2CCOCC2)cc(C)c1-c1ccc(F)c(CNc2ccc([C@H]3C[C@@H]3C(=O)O)nc2)c1 [Example 44] | 66 | 18 | –
Cc1cc(C(=O)O)cc(C)c1-c1ccc(F)c(CNc2ccc([C@H]3C[C@@H]3C(=O)O)nc2)c1 [Example 45] | 69 | 3660 | –
Cc1cc(OCC2(O)CCS(=O)(=O)CC2)cc(C)c1-c1ccc(F)c(CNc2ccc([C@H]3C[C@@H]3C(=O)O)nc2)c1 [Example 46] | 102 | 171 | –
COc1cc(-c2cc(C)c(-c3ccc(F)c(CNc4ccc([C@H]5C[C@@H]5C(=O)O)nc4)c3)c(C)c2)ccn1 [Example 47] | 57 | 5 | –
Cc1cc(OCC2(O)CCSCC2)cc(C)c1-c1ccc(F)c(CNc2ccc([C@H]3C[C@@H]3C(=O)O)nc2)c1 [Example 48] | 67 | 56 | –
Cc1cc(OCC2(O)CCOCC2)cc(C)c1-c1ccc(F)c(CNc2ccc([C@H]3C[C@@H]3C(=O)O)nc2)c1 [Example 49] | 83 | 147 | –
CC(C)c1ccccc1-c1ccc(F)c(CNc2ccc([C@H]3C[C@@H]3C(=O)O)nc2)c1 [Example 50] | – | 81 | 48
Cc1cnc(-c2cc(C)c(-c3ccc(F)c(CNc4ccc([C@H]5C[C@@H]5C(=O)O)nc4)c3)c(C)c2)nc1 [Example 51] | – | 6 | 58
COc1cc(OC)c(F)c(-c2ccc(F)c(CNc3ccc([C@H]4C[C@@H]4C(=O)O)nc3)c2)c1F [Example 52] | 62 | 836 | –
CCc1cccc(CC)c1-c1ccc(F)c(CNc2ccc([C@H]3C[C@@H]3C(=O)O)nc2)c1 [Example 53] | – | 57 | 50
Cc1cc(-c2nnn(CC(C)(C)O)n2)cc(C)c1-c1ccc(F)c(CNc2ccc([C@H]3C[C@@H]3C(=O)O)nc2)c1 [Example 54] | 81 | 10 | –
Cc1cc(-c2ccnn2C)cc(C)c1-c1ccc(F)c(CNc2ccc([C@H]3C[C@@H]3C(=O)O)nc2)c1 [Example 55] | 53 | 12 | –
Cc1cc(-c2ccn(C)c(=O)n2)cc(C)c1-c1ccc(F)c(CNc2ccc([C@H]3C[C@@H]3C(=O)O)nc2)c1 [Example 56] | – | 32 | 86
Cc1cc(C#N)cc(C)c1-c1ccc(F)c(CNc2ccc([C@H]3C[C@@H]3C(=O)O)nc2)c1 [Example 57] | 59 | 91 | –
